Earlier results as cited in patent publication US8309351B2, “Methods of identifying agents that inhibit angiogenesis” (Bionomics Limited, priority 2007, dated 2012).

System: lung cancer cells
Conditions: knock-down of beta III tubulin in lung cancer cells

Question: With `CC(=O)O[C@H]1C(=O)[C@@]2(C)[C@H]([C@H](OC(=O)c3ccccc3)[C@]3(O)C[C@H](OC(=O)[C@H](O)[C@@H](NC(=O)c4ccccc4)c4ccccc4)C(C)=C1C3(C)C)[C@]1(OC(C)=O)CO[C@@H]1C[C@@H]2O` [paclitaxel] as the compound, how does the “increase in paclitaxel sensitivity” value read?
Answer: 39%
